Values after ≈ are worked out from the molar mass of the structure shown.
Assays:
P388 leukemia = test: Therapeutic activity against P388 leukemia in mice; format: in vivo; conditions: for antitumour activity in terms of the extension of life spans: 5 mg/kg/day, intraperitoneally, consecutive days, P388 1×10^6 cells/animal i.p. transplanted; for life-extending effect upon tumour-bearing mammals: e.g. mouse
Description: The therapeutic activity (intraperitoneally administered for a consecutive days) of C-14919 E-1 and E-2 against P388 leukemia in mice (1×10^6 cells/animal, mouse, itraperitoneally transplanted) was investigated. The antitumour activity in terms of the extension of life spans was 144% at the dose level of 5 mg/kg/day.

Candida albicans [1] = test: Antimicrobial activity, serial dilution method (Glucose nutrient agar); format: cell-based; conditions: IFO 0583
Description: (§1) The antimicrobial activities of Antibiotics C-14919 E-1 and E-2 were assayed by the serial dilution method using Trypticase-soy agar (BBL), glucose nutrient agar and glycerol nutrient agar as test media (Table 5). In addition, the activities against Tetrahymena pyriformis W were determined by the serial dilution method using the assay medium [Proteose-peptone 20 g, yeast extract 1 g, glucose 2 g, distilled water 1000 ml, 1 M-phosphate buffer (pH 7.0) 10 ml].
(§2) **Glucose nutrient agar

Saccharomyces cerevisiae = test: Antimicrobial activity, serial dilution method; format: cell-based; conditions: IFO 0209; Glucose nutrient agar
Description: as §1, §2

Hormodendrum pedrosoi = test: Antimicrobial activity, serial dilution method; format: cell-based; conditions: IFO 6071; Glucose nutrient agar
Description: as §1, §2

Candida tropicalis = test: Antimicrobial activity, serial dilution method; format: cell-based; conditions: IFO 1400; Glucose nutrient agar
Description: as §1, §2

Candida = test: Antimicrobial activity, serial dilution method; format: cell-based; conditions: IFO 1396; Glucose nutrient agar
Description: as §1, §2

Penicillium chrysogenum = test: Antimicrobial activity, serial dilution method; format: cell-based; conditions: IFO 4626; Glucose nutrient agar
Description: as §1, §2

Microsporum cookei = test: Antimicrobial activity, serial dilution method; format: cell-based; conditions: IFO 8303; Glucose nutrient agar
Description: as §1, §2

Candida krusei = test: Antimicrobial activity, serial dilution method; format: cell-based; conditions: IFO 1395; Glucose nutrient agar
Description: as §1, §2

Candida utilis = test: Antimicrobial activity, serial dilution method; format: cell-based; conditions: IFO 0619; Glucose nutrient agar
Description: as §1, §2

Trychophyton rubrum = test: Antimicrobial activity, serial dilution method; format: cell-based; conditions: IFO 5467; Glucose nutrient agar
Description: as §1, §2

Microsporum canis = test: Antimicrobial activity, serial dilution method; format: cell-based; conditions: IFO 7863; Glucose nutrient agar
Description: as §1, §2

Cryptococcus neoformans = test: Antimicrobial activity, serial dilution method; format: cell-based; conditions: IFO 0410; Glucose nutrient agar
Description: as §1, §2

Candida pseudotropicalis = test: Antimicrobial activity, serial dilution method; format: cell-based; conditions: IFO 0617; Glucose nutrient agar
Description: as §1, §2

Aspergillus niger = test: Antimicrobial activity, serial dilution method; format: cell-based; conditions: IFO 4066; Glucose nutrient agar
Description: as §1, §2

Tetrahymena pyriformis W = test: Activity against Tetrahymena pyriformis W, serial dilution method; format: cell-based; conditions: Proteose-peptone solution, pH 7.0
Description: as §1
****Proteose-peptone solution

[2] = Acid, neutral or basic nature / lipophilicity; format: physicochemical
Stability in solution = format: physicochemical
Mycobacterium phlei = test: Antimicrobial activity, serial dilution method; format: cell-based; conditions: Glycerol nutrient agar
Description: as §1
(§3) ***Glycerol nutrient agar

Mycobacterium avium = test: Antimicrobial activity, serial dilution method; format: cell-based; conditions: Glycerol nutrient agar
Description: as §1, §3

[3] = system: Gram-positive bacteria, fungi and yeasts; test: Antimicrobial spectrum (summary of Table 5); format: cell-based; conditions: antimicrobial spectrum of Table 5
Description: as §1

[4] = Acute toxicity test in mice; format: in vivo; conditions: intraperitoneal administration
Description: The assumed LD50 as determined by intraperitoneal administration of C-14919 E-1 and E-2 in an acute toxicity test using mice as test animals are as follows.

Solubility = format: physicochemical
Candida albicans [5] = test: Antimicrobial activity, serial dilution method (Trypticase-soy agar); format: cell-based; conditions: IFO 0583
Description: as §1

Salmonella typhimurium = test: Antimicrobial activity, serial dilution method; format: cell-based; conditions: IFO 12529; Trypticase-soy agar
Description: as §1

Escherichia coli K-12 = test: Antimicrobial activity, serial dilution method; format: cell-based; conditions: IFO 3301; Trypticase-soy agar
Description: as §1

Bacillus subtilis 6633 = test: Antimicrobial activity, serial dilution method; format: cell-based; conditions: IFO 3134; Trypticase-soy agar
Description: as §1

Bacillus pumilus = test: Antimicrobial activity, serial dilution method; format: cell-based; conditions: IFO 3813; Trypticase-soy agar
Description: as §1

Proteus vulgaris = test: Antimicrobial activity, serial dilution method; format: cell-based; conditions: IFO 3045; Trypticase-soy agar
Description: as §1

Bacillus brevis = test: Antimicrobial activity, serial dilution method; format: cell-based; conditions: IFO 3331; Trypticase-soy agar
Description: as §1

Bacillus cereus = test: Antimicrobial activity, serial dilution method; format: cell-based; conditions: IFO 3514; Trypticase-soy agar
Description: as §1

Pseudomonas aeruginosa = test: Antimicrobial activity, serial dilution method; format: cell-based; conditions: IFO 3080; Trypticase-soy agar
Description: as §1

Bacillus subtilis PCI219 = test: Antimicrobial activity, serial dilution method; format: cell-based; conditions: IFO 3513; Trypticase-soy agar
Description: as §1

Bacillus megaterium = test: Antimicrobial activity, serial dilution method; format: cell-based; conditions: IFO 12108; Trypticase-soy agar
Description: as §1

Serratia marcescens = test: Antimicrobial activity, serial dilution method; format: cell-based; conditions: IFO 3046; Trypticase-soy agar
Description: as §1

Alcaligenes faecalis = test: Antimicrobial activity, serial dilution method; format: cell-based; conditions: IFO 13111; Trypticase-soy agar
Description: as §1

[6] = system: Staphylococcus aureus 209P; test: Antimicrobial activity, serial dilution method; format: cell-based; conditions: IFO 12732; Trypticase-soy agar
Description: as §1

Micrococcus flavus = test: Antimicrobial activity, serial dilution method; format: cell-based; conditions: IFO 3242; Trypticase-soy agar
Description: as §1

Sarcina lutea = test: Antimicrobial activity, serial dilution method; format: cell-based; conditions: IFO 3232; Trypticase-soy agar
Description: as §1

[7] = Room temp., basic solution/conditions
[8] = Room temp., neutral and weakly acidic solutions/conditions

Question: Which results are given for COC1CC(C)C(OC)c2cc(O)cc(c2O)NC(=O)/C(C)=C/C=C\C(C)C(OC(N)=O)/C(C)=C/C(C)C1OC (centres unmarked) [C-14919 E-2]?
Answer: antitumour activity in terms of the extension of life spans (P388 leukemia): 144%; life-extending effect upon tumour-bearing mammals (P388 leukemia): life-extending effect; MIC (Candida albicans [1]): 25 µg/mL (≈ 44.6 µM); MIC (Saccharomyces cerevisiae): 100 µg/mL (≈ 178 µM); MIC (Hormodendrum pedrosoi): > 100 µg/mL; MIC (Candida tropicalis): > 100 µg/mL; MIC (Candida): 25 µg/mL (≈ 44.6 µM); MIC (Penicillium chrysogenum): 25 µg/mL (≈ 44.6 µM); MIC (Microsporum cookei): > 100 µg/mL; MIC (Candida krusei): > 100 µg/mL; MIC (Candida utilis): > 100 µg/mL; MIC (Trychophyton rubrum): > 100 µg/mL; MIC (Microsporum canis): > 100 µg/mL; MIC (Cryptococcus neoformans): > 100 µg/mL; MIC (Candida pseudotropicalis): 100 µg/mL (≈ 178 µM); MIC (Aspergillus niger): 100 µg/mL (≈ 178 µM); MIC (Tetrahymena pyriformis W): 10 µg/mL (≈ 17.8 µM); Acid, neutral or basic [2]: a neutral substance; lipophilicity [2]: lipophyl; Stability (Stability in solution; 80° C., 1 hr.): unstable; Stability (Stability in solution; [7]): Unstable; Stability (Stability in solution; [8]): Stable; MIC (Mycobacterium phlei): > 100 µg/mL; MIC (Mycobacterium avium): > 100 µg/mL; antimicrobial activity [3]: display activity against Gram-positive bacteria, fungi and yeasts; assumed LD50 [4]: 25 to 100 mg/kg; Solubility in acetone (Solubility): Soluble; Solubility in benzene (Solubility): Sparingly soluble; Solubility in butanol (Solubility): Soluble; Solubility in chloroform (Solubility): Sparingly soluble; Solubility in diethyl ether (Solubility): Sparingly soluble; Solubility in dimethylsulfoxide (Solubility): Readily soluble; Solubility in ethanol (Solubility): Soluble; Solubility in ethyl acetate (Solubility): Soluble; Solubility in hexane (Solubility): Insoluble; Solubility in methanol (Solubility): Soluble; Solubility in methyl isobutyl ketone (Solubility): Soluble; Solubility in petroleum ether (Solubility): Insoluble; Solubility in water (Solubility): Sparingly soluble; MIC (Candida albicans [5]): 6.25 µg/mL (≈ 11.1 µM); MIC (Salmonella typhimurium): > 100 µg/mL; MIC (Escherichia coli K-12): > 100 µg/mL; MIC (Bacillus subtilis 6633): 100 µg/mL (≈ 178 µM); MIC (Bacillus pumilus): 100 µg/mL (≈ 178 µM); MIC (Proteus vulgaris): > 100 µg/mL; MIC (Bacillus brevis): 50 µg/mL (≈ 89.2 µM); MIC (Bacillus cereus): > 100 µg/mL; MIC (Pseudomonas aeruginosa): > 100 µg/mL; MIC (Bacillus subtilis PCI219): > 100 µg/mL; MIC (Bacillus megaterium): 50 µg/mL (≈ 89.2 µM); MIC (Serratia marcescens): > 100 µg/mL; MIC (Alcaligenes faecalis): 100 µg/mL (≈ 178 µM); MIC [6]: > 100 µg/mL; MIC (Micrococcus flavus): 50 µg/mL (≈ 89.2 µM); MIC (Sarcina lutea): 50 µg/mL (≈ 89.2 µM)

Question: Which results are given for COC1C[C@H](C)[C@@H](OC)C2=CC(=O)C=C(NC(=O)/C(C)=C/C=C\[C@H](C)C(OC(N)=O)/C(C)=C/[C@@H](C)[C@@H]1OC)C2=O (some centres unmarked) [C-14919 E-1]?
Answer: antitumour activity in terms of the extension of life spans (P388 leukemia): 144%; life-extending effect upon tumour-bearing mammals (P388 leukemia): life-extending effect; MIC (Candida albicans [1]): 50 µg/mL (≈ 89.5 µM); MIC (Saccharomyces cerevisiae): 100 µg/mL (≈ 179 µM); MIC (Hormodendrum pedrosoi): > 100 µg/mL; MIC (Candida tropicalis): > 100 µg/mL; MIC (Candida): 50 µg/mL (≈ 89.5 µM); MIC (Penicillium chrysogenum): 50 µg/mL (≈ 89.5 µM); MIC (Microsporum cookei): > 100 µg/mL; MIC (Candida krusei): > 100 µg/mL; MIC (Candida utilis): > 100 µg/mL; MIC (Trychophyton rubrum): > 100 µg/mL; MIC (Microsporum canis): > 100 µg/mL; MIC (Cryptococcus neoformans): > 100 µg/mL; MIC (Candida pseudotropicalis): 100 µg/mL (≈ 179 µM); MIC (Aspergillus niger): 100 µg/mL (≈ 179 µM); MIC (Tetrahymena pyriformis W): 10 µg/mL (≈ 17.9 µM); Acid, neutral or basic [2]: a neutral substance; lipophilicity [2]: lipophyl; Stability (Stability in solution; 80° C., 1 hr.): unstable; Stability (Stability in solution; [7]): Unstable; Stability (Stability in solution; [8]): Stable; MIC (Mycobacterium phlei): > 100 µg/mL; MIC (Mycobacterium avium): > 100 µg/mL; antimicrobial activity [3]: display activity against Gram-positive bacteria, fungi and yeasts; assumed LD50 [4]: 50 to 100 mg/kg; Solubility in acetone (Solubility): Soluble; Solubility in benzene (Solubility): Sparingly soluble; Solubility in butanol (Solubility): Soluble; Solubility in chloroform (Solubility): Soluble; Solubility in diethyl ether (Solubility): Sparingly soluble; Solubility in dimethylsulfoxide (Solubility): Readily soluble; Solubility in ethanol (Solubility): Soluble; Solubility in ethyl acetate (Solubility): Soluble; Solubility in hexane (Solubility): Insoluble; Solubility in methanol (Solubility): Soluble; Solubility in methyl isobutyl ketone (Solubility): Soluble; Solubility in petroleum ether (Solubility): Insoluble; Solubility in water (Solubility): Insoluble; MIC (Candida albicans [5]): 25 µg/mL (≈ 44.7 µM); MIC (Salmonella typhimurium): > 100 µg/mL; MIC (Escherichia coli K-12): > 100 µg/mL; MIC (Bacillus subtilis 6633): 50 µg/mL (≈ 89.5 µM); MIC (Bacillus pumilus): 50 µg/mL (≈ 89.5 µM); MIC (Proteus vulgaris): > 100 µg/mL; MIC (Bacillus brevis): 50 µg/mL (≈ 89.5 µM); MIC (Bacillus cereus): > 100 µg/mL; MIC (Pseudomonas aeruginosa): > 100 µg/mL; MIC (Bacillus subtilis PCI219): 100 µg/mL (≈ 179 µM); MIC (Bacillus megaterium): 50 µg/mL (≈ 89.5 µM); MIC (Serratia marcescens): > 100 µg/mL; MIC (Alcaligenes faecalis): > 100 µg/mL; MIC [6]: > 100 µg/mL; MIC (Micrococcus flavus): 50 µg/mL (≈ 89.5 µM); MIC (Sarcina lutea): 50 µg/mL (≈ 89.5 µM)
